Source: patent US12686652B2, “Methods of increasing irrigation water and fertilizer delivery to soil using formic acid and formate salts, making a formate salt from carbon dioxide, and generating a carbon credit” (Deerpoint Group, Inc., priority 2023, dated 2026)
Several values for one entry are separate records, joined by “and”; a condition that tells them apart may be missing. Equal entries are not always repeated. Where two headings read alike, the source gives them in different places.

Assays:
[1] = for Liquid Eluted after 60 min / Liquid Eluted after 120 min / Time (50 g of liquid, in min) / Liquid Eluted after 240 min: Ca formate 22 ppm by moles, average of two columns; for Liquid Eluted after 60 min / Liquid Eluted after 120 min / Time (50 g of liquid, in min): HCO2H 0.33% by weight
Text: The objective was to investigate the behavior of different irrigation water treatments and determine the relative amounts of water that passed through the soil columns. The column retention times reflect the rate at which the liquid passes through the soil. Understanding these retention times provides insights about the transport and movement of irrigation water (and any fertilizers dissolved therein) through the soil, which has implications for the volume of water passing into and through the root zone, nutrient availability to crops, leaching of contaminants, and overall soil health.
The data in Table 1 is for the average of the two soil samples.

[2] = ICP and flow injection (FIA) analyses of solutions passed through soil columns, second farm; settings: single soil sample
Text: FIA was used to determine the content of the listed anion (e.g., NO3, Cl, PO4, etc.). Results are presented from a single soil sample.

[3] = first farm soil, duplicate columns A and B
[4] = Text: The irrigation water at the second farm was from a different source than the first farm.
[5] = cited from earlier work
[6] = 1st pass, Alternating = formic acid pass
[7] = 2nd pass, Alternating = calcium formate pass
[8] = 3rd pass, Alternating = formic acid pass
[9] = 4th pass, Alternating = calcium formate pass
[10] = first pass, dry soil, second farm (FIG. 3)
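Throughout, for Mn in solution passed through soil column (ICP): eluate from PVC columns holding 100 g of dry ground farm soil, analysed by ICP-OES for element content after the solution had drained through, irrigation water measured as received for reference.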

O=C[O-].O=C[O-].[Ca+2] [Ca formate, calcium formate]
Drainage Rate: Time (50 g), percentage relative to irrigation water ([1]; 1st pass, first farm soil): 66.7% | Drainage Rate: liquid eluted at 60 mins, percentage relative to irrigation water ([1]; 1st pass, first farm soil): 180% | Drainage Rate: liquid eluted at 120 mins, percentage relative to irrigation water ([1]; 1st pass, first farm soil): 152% | Liquid Eluted after 60 min ([1]; 1st pass, first farm soil): 28.6 g | Liquid Eluted after 120 min ([1]; 1st pass, first farm soil): 53.9 g | Time (50 g of liquid, in min) ([1]; 1st pass, first farm soil): 120 min | Drainage Rate: Time (50 g), percentage relative to irrigation water ([1]; 2nd pass, first farm soil): 66.7% | Drainage Rate: liquid eluted at 60 mins, percentage relative to irrigation water ([1]; 2nd pass, first farm soil): 157% | Drainage Rate: liquid eluted at 120 mins, percentage relative to irrigation water ([1]; 2nd pass, first farm soil): 150% | Drainage Rate: liquid eluted at 240 min, percentage relative to irrigation water ([1]; 2nd pass, first farm soil): 137% | Liquid Eluted after 60 min ([1]; 2nd pass, first farm soil): 33.3 g | Liquid Eluted after 120 min ([1]; 2nd pass, first farm soil): 59.9 g | Time (50 g of liquid, in min) ([1]; 2nd pass, first farm soil): 120 min | Liquid Eluted after 240 min ([1]; 2nd pass, first farm soil): 98.5 g | Drainage Rate: Time (50 g), percentage relative to irrigation water ([1]; 3rd pass, first farm soil): 83.3% | Drainage Rate: liquid eluted at 60 mins, percentage relative to irrigation water ([1]; 3rd pass, first farm soil): 138% | Drainage Rate: liquid eluted at 120 mins, percentage relative to irrigation water ([1]; 3rd pass, first farm soil): 135% | Drainage Rate: liquid eluted at 240 min, percentage relative to irrigation water ([1]; 3rd pass, first farm soil): 131% | Liquid Eluted after 60 min ([1]; 3rd pass, first farm soil): 26.4 g | Liquid Eluted after 120 min ([1]; 3rd pass, first farm soil): 48.8 g | Time (50 g of liquid, in min) ([1]; 3rd pass, first farm soil): 150 min | Liquid Eluted after 240 min ([1]; 3rd pass, first farm soil): 86.7 g | Drainage Rate: Time (50 g), percentage relative to irrigation water ([1]; 4th pass, first farm soil): 83.3% | Drainage Rate: liquid eluted at 60 mins, percentage relative to irrigation water ([1]; 4th pass, first farm soil): 123% | Drainage Rate: liquid eluted at 120 mins, percentage relative to irrigation water ([1]; 4th pass, first farm soil): 118% | Drainage Rate: liquid eluted at 240 min, percentage relative to irrigation water ([1]; 4th pass, first farm soil): 110% | Liquid Eluted after 60 min ([1]; 4th pass, first farm soil): 24.1 g | Liquid Eluted after 120 min ([1]; 4th pass, first farm soil): 44.6 g | Time (50 g of liquid, in min) ([1]; 4th pass, first farm soil): 150 min | Liquid Eluted after 240 min ([1]; 4th pass, first farm soil): 75.0 g | Liquid retained by the soil samples on average ([1]; first pass, dry soil, first farm, 100 ml added (FIG. 1)): about 36 ml | Improvement in amount of liquid eluted compared to the irrigation water ([1]; fixed periods 60, 120 and 240 mins, first farm soil): 110-180% | B in solution passed through soil column (ICP) [2, 6]: 0.5 ppm | Ca in solution passed through soil column (ICP) [2, 6]: 76.1 ppm | Cl^− in solution passed through soil column (FIA) [2, 6]: 288.0 ppm | K in solution passed through soil column (ICP) [2, 6]: 4.5 ppm | Mg in solution passed through soil column (ICP) [2, 6]: 19.6 ppm | NO3^− in solution passed through soil column (FIA) [2, 6]: 0.0 ppm | Na in solution passed through soil column (ICP) [2, 6]: 169.0 ppm | P in solution passed through soil column (ICP) [2, 6]: 1.0 ppm | S in solution passed through soil column (ICP) [2, 6]: 51.4 ppm | Si in solution passed through soil column (ICP) [2, 6]: 26.3 ppm | B in solution passed through soil column (ICP) [2, 7]: 0.3 ppm | Ca in solution passed through soil column (ICP) [2, 7]: 24.0 ppm | Cl^− in solution passed through soil column (FIA) [2, 7]: 92.1 ppm | K in solution passed through soil column (ICP) [2, 7]: 2.5 ppm | Mg in solution passed through soil column (ICP) [2, 7]: 6.1 ppm | NO3^− in solution passed through soil column (FIA) [2, 7]: 0.0 ppm | Na in solution passed through soil column (ICP) [2, 7]: 110.4 ppm | P in solution passed through soil column (ICP) [2, 7]: 1.1 ppm | S in solution passed through soil column (ICP) [2, 7]: 14.8 ppm | Si in solution passed through soil column (ICP) [2, 7]: 26.9 ppm | B in solution passed through soil column (ICP) [2, 8]: 0.2 ppm | Ca in solution passed through soil column (ICP) [2, 8]: 21.7 ppm | Cl^− in solution passed through soil column (FIA) [2, 8]: 91.9 ppm | K in solution passed through soil column (ICP) [2, 8]: 2.4 ppm | Mg in solution passed through soil column (ICP) [2, 8]: 5.5 ppm | NO3^− in solution passed through soil column (FIA) [2, 8]: 0.0 ppm | Na in solution passed through soil column (ICP) [2, 8]: 96.4 ppm | P in solution passed through soil column (ICP) [2, 8]: 1.0 ppm | S in solution passed through soil column (ICP) [2, 8]: 10.3 ppm | Si in solution passed through soil column (ICP) [2, 8]: 24.3 ppm | B in solution passed through soil column (ICP) [2, 9]: 0.2 ppm | Ca in solution passed through soil column (ICP) [2, 9]: 30.4 ppm | Cl^− in solution passed through soil column (FIA) [2, 9]: 93.6 ppm | K in solution passed through soil column (ICP) [2, 9]: 2.4 ppm | Mg in solution passed through soil column (ICP) [2, 9]: 7.5 ppm | NO3^− in solution passed through soil column (FIA) [2, 9]: 0.0 ppm | Na in solution passed through soil column (ICP) [2, 9]: 95.4 ppm | P in solution passed through soil column (ICP) [2, 9]: 0.9 ppm | S in solution passed through soil column (ICP) [2, 9]: 10.1 ppm | Si in solution passed through soil column (ICP) [2, 9]: 23.3 ppm | B in solution passed through soil column (ICP) ([3]; 1st pass): 4.35 ppm and 4.97 ppm | Ca in solution passed through soil column (ICP) ([3]; 1st pass): 135.1 ppm and 142.4 ppm | K in solution passed through soil column (ICP) ([3]; 1st pass): 10.81 ppm and 11.82 ppm | Mg in solution passed through soil column (ICP) ([3]; 1st pass): 53.6 ppm and 56.4 ppm | Mn in solution passed through soil column (ICP) ([3]; 1st pass): 1.95 ppm and 2.09 ppm | Na in solution passed through soil column (ICP) ([3]; 1st pass): 82.3 ppm and 88.9 ppm | P in solution passed through soil column (ICP) ([3]; 1st pass): 0.45 ppm and 0.36 ppm | S in solution passed through soil column (ICP) ([3]; 1st pass): 99.1 ppm and 103.0 ppm | Si in solution passed through soil column (ICP) ([3]; 1st pass): 26.5 ppm and 27.6 ppm | B in solution passed through soil column (ICP) ([3]; 2nd pass): 2.41 ppm and 2.40 ppm | Ca in solution passed through soil column (ICP) ([3]; 2nd pass): 26.6 ppm and 25.2 ppm | K in solution passed through soil column (ICP) ([3]; 2nd pass): 5.69 ppm and 5.73 ppm | Mg in solution passed through soil column (ICP) ([3]; 2nd pass): 10.4 ppm and 9.8 ppm | Mn in solution passed through soil column (ICP) ([3]; 2nd pass): 0.19 ppm and 0.22 ppm | Na in solution passed through soil column (ICP) ([3]; 2nd pass): 36.8 ppm and 38.2 ppm | P in solution passed through soil column (ICP) ([3]; 2nd pass): 0.40 ppm and 0.41 ppm | S in solution passed through soil column (ICP) ([3]; 2nd pass): 21.2 ppm and 19.6 ppm | Si in solution passed through soil column (ICP) ([3]; 2nd pass): 25.2 ppm and 26.2 ppm | B in solution passed through soil column (ICP) ([3]; 3rd pass): 1.74 ppm and 1.48 ppm | Ca in solution passed through soil column (ICP) ([3]; 3rd pass): 21.1 ppm and 19.4 ppm | K in solution passed through soil column (ICP) ([3]; 3rd pass): 6.01 ppm and 5.41 ppm | Mg in solution passed through soil column (ICP) ([3]; 3rd pass): 8.2 ppm and 7.6 ppm | Na in solution passed through soil column (ICP) ([3]; 3rd pass): 32.7 ppm and 31.1 ppm | P in solution passed through soil column (ICP) ([3]; 3rd pass): 0.68 ppm and 0.58 ppm | S in solution passed through soil column (ICP) ([3]; 3rd pass): 13.9 ppm and 13.0 ppm | Si in solution passed through soil column (ICP) ([3]; 3rd pass): 28.4 ppm and 26.2 ppm | B in solution passed through soil column (ICP) ([3]; 4th pass): 0.69 ppm and 0.73 ppm | Ca in solution passed through soil column (ICP) ([3]; 4th pass): 15.0 ppm and 15.9 ppm | K in solution passed through soil column (ICP) ([3]; 4th pass): 5.09 ppm and 5.06 ppm | Mg in solution passed through soil column (ICP) ([3]; 4th pass): 5.9 ppm and 6.0 ppm | Mn in solution passed through soil column (ICP) ([3]; 4th pass): 0.05 ppm and 0.04 ppm | Na in solution passed through soil column (ICP) ([3]; 4th pass): 21.6 ppm and 22.9 ppm | P in solution passed through soil column (ICP) ([3]; 4th pass): 0.56 ppm | S in solution passed through soil column (ICP) ([3]; 4th pass): 5.3 ppm and 5.5 ppm | Si in solution passed through soil column (ICP) ([3]; 4th pass): 22.3 ppm and 22.7 ppm | Liquid retained by the soil samples on average [4, 10]: 43 to 44 mL | Time at which solution had completed passing through the soil column on average [4, 10]: about 240 minutes | Time of first appearance of liquid from the columns on average [4, 10]: 20 to 30 min | Amount of liquid passed through the columns compared with irrigation water at the same lengths of time ([4]; first pass, second farm, from 20-30 minutes up to 240 minutes): more than three times as much | Time at which solution had completed passing through the soil column on average ([4]; second pass, wet/damp soil, second farm (FIG. 4)): about 390 minutes

[Fe+2] [Fe^+2]
Solubility with anion CO3^−2 [5]: VSS (VSS means very slightly soluble (20-2,000 ppm)) | Solubility with anion CO3^−2 ([5]; listed as Fe^+3): I (I means insoluble (<20 ppm)) | Solubility with anion Cl^− ([5]; anion Cl^−): S (S means soluble (over 5,000 ppm)) | Solubility with anion HCO3^− [5]: SS (SS means slightly soluble (2,000 to 5,000 ppm)) | Solubility with anion HCO3^− ([5]; listed as Fe^+3): I (I means insoluble (<20 ppm)) | Solubility with anion NO3^− ([5]; anion NO3^−): S (S means soluble (over 5,000 ppm)) | Solubility with anion OH^− [5]: VSS (VSS means very slightly soluble (20-2,000 ppm)) | Solubility with anion OH^− ([5]; listed as Fe^+3): I (I means insoluble (<20 ppm)) | Solubility with anion PO4^−3 ([5]; anion PO4^−3): I (I means insoluble (<20 ppm)) | Solubility with anion SO4^−2 ([5]; anion SO4^−2): S (S means soluble (over 5,000 ppm)) | Solubility with anion S^−2 ([5]; anion S^−2): I (I means insoluble (<20 ppm))
